Experimental data reported in PMC3408433, “Selective Cytotoxicity of Amidinopiperidine Based Compounds Towards Burkitt’s Lymphoma Cells Involves Proteasome Inhibition” (PLoS ONE, 2012).

Experiments:
[1] = system: human Burkitt’s lymphoma (Daudi); assay: Metabolic activity assay (MTS), Daudi; format: cell-based; settings: 50 µM, 24 h
Experimental: (§1) Compounds 11, and 14–16 were further tested for selective cytotoxicity. The experiments were conducted on freshly isolated primary peripheral blood mononuclear cells (PBMC) and three other haematological cancers: human T cell leukaemia (Jurkat), human histiocytic lymphoma (U937) and human Burkitt’s lymphoma (Daudi). An MTS assay was performed following 24 h of treatment with the compound of interest at 50 µM. […] The inhibition of proliferation in Ramos cells, mediated with compounds 15 and 16, was concentration dependent.
(§2) Cells (1×10^5 cells/mL for Ramos, Daudi, U937 and Jurkat, and 1×10^6 cells/mL for PBMC) were treated with the appropriate amounts of compounds of interest or corresponding vehicle (control cells), then seeded in triplicate in 96 well plates. The metabolic activity was assessed using the CellTiter 96® Aqueous One Solution Cell Proliferation Assay (Promega, Madison/WI, USA), in accordance with the manufacturer’s instructions.

[2] = biological target: T1, trypsin-like activity of human 20S proteasome (Homo sapiens, UniProt Q99436); assay: Proteasome activity measurement, trypsin-like; format: biochemical; settings: for Ki: purified human 20S proteasome, Bz-Val-Gly-Arg-AMC, non-competitive
T1 construct: purchased Boston Biochem, Inc
Experimental: (§3) Suc-Leu-Leu-Val-Tyr-AMC, Bz-Val-Gly-Arg-AMC and Z-Leu-Leu-Glu-AMC (Bachem, Bubendorf, Switzerland) were used for the chymotrypsin-like, trypsin-like and caspase-like activites, respectively. Assay buffer consisted of TE buffer (20 mM Tris (pH = 8.0), 0.5 mM EDTA, 0.03% SDS). Substrate hydrolysis was continuously monitored at 37°C with an automated microplate reader (Tecan Safire^2). Measured fluorescence values (RFU) were plotted versus time with nonlinear regression to fit a Michaelis-Menten plot.
(§4) For the Ki determination, 25 µL of substrate at three concentrations and 25 µL of inhibitor of interest also at three different concentrations were added to the wells of a white microplate. The reaction was initiated with 50 µL of the enzyme in the assay buffer. Flourescence of the AMC release was continuously monitored at 420 nm with 320 nm excitation.
(§5) Km and Ki were calculated using SigmaPlot 11 (Enzyme Kinetics Module 1.3) and are presented as the mean of three independent experiments.

[3] = biological target: T2, caspase-like activity of human 20S proteasome (Homo sapiens, UniProt P28072); assay: Proteasome activity measurement, caspase-like; format: biochemical; settings: purified human 20S proteasome, Z-Leu-Leu-Glu-AMC, uncompetitive
T2 construct: purchased Boston Biochem, Inc
Experimental: as §3, §4, §5

[4] = biological target: T3, chymotrypsin-like activity of human 20S proteasome (Homo sapiens, UniProt P28074); assay: Proteasome activity measurement, chymotrypsin-like; format: biochemical; settings: purified human 20S proteasome, Suc-Leu-Leu-Val-Tyr-AMC, uncompetitive
T3 construct: purchased Boston Biochem, Inc
Experimental: as §3, §4, §5

[5] = system: NFκB transcriptional activity in Ramos-Blue cells; assay: Quanti-blue assay, NFκB transcriptional activity (SEAP reporter); format: cell-based, human; settings: 50 µM pretreatment 1 h, TNF-α 100 ng/mL, 8 h
Experimental: Ramos-Blue™ cells (Invivogen), which stably express an NF-κB/AP-1-inducible secreted embryonic alkaline phosphate (SEAP) reporter construct, were assayed for NFκB transcriptional activity changes upon pretreating them with the compound of interest (50 µM) for 1 h and subsequently stimulating them with recombinant TNF-α (100 ng/mL). SEAP activity was determined in the supernatant in accordance with the manufacturer’s instructions. Briefly, to 200 µL of QUANTI-Blue regent 20 µL of cell supernatant was added and incubated at 37°C for 3 h. Abosorbance was measured on microplate reader Tecan Safire^2 at 640 nm.

[6] = system: human T cell leukaemia (Jurkat); assay: Metabolic activity assay (MTS), Jurkat; format: cell-based; settings: 50 µM, 24 h
Experimental: as §1, §2

[7] = system: Ramos cells; assay: Annexin V/7-AAD assay; format: cell-based, human; settings: 16 h; for percentage of Annexin V positive cells: 50 µM, untreated 4% (Figure 5A)
Experimental: We used a PE Annexin V Apoptosis Detection Kit I (BD Biosciences) in accordance with the manufacturer’s instructions. Put briefly, Ramos cells were, following their treatment with the compound of interest, washed with cold PBS and resuspended in 1× binding buffer at a […] concentration. 100 µL of cell suspension was transferred to a 5 mL tube and 5 µL of both PE Annexin V and 7-AAD was added. The suspension was gently vortexed and incubated for 15 min at room temperature in the dark. Following this, 400 µL of 1× binding buffer was added and samples were analysed using a FACScalibur flow cytometer.

[8] = biological target: α-chymotrypsin (Bos taurus, UniProt P00766); assay: α-Chymotrypsin inhibition assay
Experimental: In short, a 1 nM solution of α-chymotrypsin was mixed with various concentrations of the substrate Suc-Ala-Ala-Pro-Phe-AMC. All the solutions were prepared in 144 mM Tris–HCl, pH 7.8. Substrate hydrolysis was monitored at 30°C on an automated Tecan Safire^2 microplate reader (Tecan, Mannedorf/Zürich, Switzerland). The initial rates of the reactions (ΔF/Δt) were measured immediately after the addition of the substrate (within 200 s) and plotted versus substrate concentration with nonlinear regression to fit a Michaelis-Menten plot. The curve fit and kinetic parameters (Km and v max) were calculated using GraphPad PRISM version 5.0 software (GraphPad Software, Inc., CA, USA). […] The initial velocities of the hydrolysis reactions were measured under the same conditions as described for the determination of Km. 50 µl of α-chymotrypsin solution was added to 50 µl of each inhibitor solution (prepared in 144 mM Tris–HCl, pH 7.8; final concentration 1 nM) and incubated at 30°C for 15 min. The reaction was initiated with the addition of 100 µl of substrate. […] The Ki values were determined as mean values of all measurements.

[9] = system: human histiocytic lymphoma (U937); assay: Metabolic activity assay (MTS), U937; format: cell-based; settings: U937, 50 µM, 24 h
Experimental: as §1, §2

[10] = system: procaspase-3 cleavage in Ramos cells; assay: Western blot analysis of caspase-3 processing; format: cell-based, human; settings: compound 50 µM, zVad-fmk 50 µM
Experimental: Ramos cells were seeded in 6-well culture plates at a concentration of 1×10^6 cells/mL and treated with the compound of interest or corresponding vehicle for 1 h, 2 h or 6 h. After the indicated time points, cells were harvested, washed in ice-cold PBS and lysed in modified RIPA buffer (50 mM Tris-HCl, pH 7.4, 150 mM NaCl, 1% NP−40, 0.25% Na-deoxycholate, 1 mM EDTA, 1 µg/mL aprotinin, 1 mM PMSF and 1× Halt Phosphatase inhibitor cocktail (Thermo Scientific, Pierce Biotechnology, IL, USA)). The lysates were sonicated, rocked on ice for 30 min and centrifuged at 13,000 rpm at 4°C for 15 min. Protein samples were electrophoresed in SDS-polyacrylamide gels and then transferred to nitrocellulose membranes. The primary antibodies used were against ubiquitin, phospho-IκBα, IκBα, p65 and caspase-3 (Cell Signaling, Danvers/MA, USA), and p105/p50 (Santa Cruz Biotechnology, Inc., Santa Cruz/CA, USA), and ß-actin (Sigma-Aldrich). Following incubation with the primary antibody, membranes were washed six times and incubated for 1 h at room temperature with the corresponding dilution of the appropriate secondary antibody conjugated with horseradish peroxidase (Upstate, Temecula, CA, USA). The immunoreactivity of respective proteins of interest was determined by chemiluminescence using the SuperSignal West Femto substrate (Pierce, IL, USA), in accordance with the manufacturer's instructions. […]

[11] = presence of zVADfmk 50 µM (Figure 5D)

Row | SMILES | residual metabolic activity relative to control [1] | Ki [2] [µM] | Ki ' caspase-like activity [3] | Ki ' chymotrypsin-like activity [4] | reduction of TNF-α-induced NFκB activity (SEAP) [5] | residual metabolic activity relative to control [6] | percentage of Annexin V positive cells [7] [%] | Ki [8] [µM] | residual metabolic activity relative to control [9] | compound-induced procaspase-3 cleavage after zVad-fmk pretreatment [10] | mode of inhibition, trypsin-like activity ([2]; SigmaPlot 11) | Annexin V positive cells (lower right quadrant) ([7]; absence of zVADfmk (Figure 5D)) [%] | living cells (lower left quadrant, Annexin V/7-AAD) ([7]; absence of zVADfmk (Figure 5D)) [%] | Annexin V positive cells (lower right quadrant) [7, 11] [%] | living cells (lower left quadrant, Annexin V/7-AAD) [7, 11] [%]
1 | N=C(N)N1CCC(CN(NS(=O)(=O)c2ccc3ccccc3c2)C(=O)N2CCCCC2)CC1 [Compound 15] | severe and selective decrease | 13 | Ki ' = 165±26 µM | Ki ' = 84±15 µM | over 60% | no or only moderate decreases | 57 | 27.6 | no or only moderate decreases | completely blocked |  |  |  |  | 
2 | N=C(N)N1CCC(CN(NS(=O)(=O)c2ccc3ccccc3c2)C(=O)N2CCCCCC2)CC1 [Compound 16] | severe and selective decrease | 17 | Ki ' = 70±3 µM | Ki ' = 37±13 µM | over 60% | no or only moderate decreases | 39 | 28.7 | no or only moderate decreases | completely blocked | non-competitive | 30 | 62 | 11 | 82
